Here are results for three compounds from ChEMBL document CHEMBL1944549, “Small molecule inhibitors of BRAF in clinical trials” (Bioorg Med Chem Lett, 2012).

Data set [1] in a line: Antitumor activity against human melanoma cells harboring patient assessed as increase in survival of patient at 1000 mg/kg, iv administered 3 times a week. It is filed as functional. As to conditions: Melanoma cell.
Another data set concerns HCT-116. In words: Growth inhibition of human HCT116 cells expressing wild-type B-Raf and K-Ras2 G13D mutant after 72 hrs by WST-1 assay. The class given is functional, cell-based. Conditions: HCT-116, 72 h.
In another data set the test system is SK-MEL-2. Kind of data set: Growth inhibition of human SK-MEL-2 cells expressing wild-type B-Raf and N-Ras2 Q61R mutant after 72 hrs by WST-1 assay. It is filed as functional, cell-based. As to conditions: SK-MEL-2, 72 h. (In general: Tetrazolium dyes change colour on reduction, which living cells bring about.)
The nature of data set [2]: Antitumor activity against human melanoma cells assessed as increase in survival of patient at […], po administered BID. Conditions: Melanoma cell. The class given is functional.
Data set [3] is described as follows: Toxicity in po dosed cancer patient bearing B-Raf V600E mutation administered BID. It is filed as organism-based. As to conditions: human, in vivo.

In the case of `CC(C)(C)c1nc(-c2cccc(NS(=O)(=O)c3c(F)cccc3F)c2F)c(-c2ccnc(N)n2)s1` [DABRAFENIB], the survival at 1000 mg/kg in data set [1] stood at 64%. For the compound `CN(C)CCOc1ccc(-c2nc(-c3ccncc3)c(-c3ccc4c(c3)CC/C4=N\O)[nH]2)cc1` [SB590885], the EC50 in the data set with HCT-116 and with SK-MEL-2 was 1100 nM throughout. Turning to `CCCS(=O)(=O)Nc1ccc(F)c(C(=O)c2c[nH]c3ncc(-c4ccc(Cl)cc4)cc23)c1F` [VEMURAFENIB], in data set [2], the survival came to 84%. In data set [3], this compound yielded an MTD of 960 mg.
